According to PMC8699473, “An Easily Expandable Multi-Drug LC-MS Assay for the Simultaneous Quantification of 57 Oral Antitumor Drugs in Human Plasma” (Cancers, 2021):

Assay: Short-term stability in spiked pooled human plasma (bench-top, 4 °C, 56 °C)

Structure (SMILES) | Short-time stability (1h, 56°C) Accuracy [%] (validation standard 2xLLOV) | Short-time stability (24h, 4°C, without daylight) Accuracy [%] (validation standard 2xLLOV) | Short-time stability (24h, RT, with daylight) Accuracy [%] (validation standard 2xLLOV) | Short-time stability (24h, RT, without daylight) Accuracy [%] (validation standard 2xLLOV) | Short-time stability (24h, 4°C, without daylight) Accuracy [%] (validation standard LLOV) | Short-time stability (24h, RT, with daylight) Accuracy [%] (validation standard LLOV) | Short-time stability (24h, RT, without daylight) Accuracy [%] (validation standard LLOV) | Short-time stability (1h, 56°C) Accuracy [%] (validation standard MOV) | Short-time stability (24h, 4°C, without daylight) Accuracy [%] (validation standard MOV) | Short-time stability (24h, RT, with daylight) Accuracy [%] (validation standard MOV) | Short-time stability (24h, RT, without daylight) Accuracy [%] (validation standard MOV) | Short-time stability (1h, 56°C) Accuracy [%] (validation standard ULOV) | Short-time stability (24h, 4°C, without daylight) Accuracy [%] (validation standard ULOV) | Short-time stability (24h, RT, with daylight) Accuracy [%] (validation standard ULOV) | Short-time stability (24h, RT, without daylight) Accuracy [%] (validation standard ULOV) | Short-time stability (1h, 56°C) Accuracy [%] (validation standard LLOV) | light sensitivity (acceptance limit <85%) | concentrations in short-term stability investigations (24 h, room temperature, with or without light)
CC1(C)CCC(CN2CCN(c3ccc(C(=O)NS(=O)(=O)c4ccc(NCC5CCOCC5)c([N+](=O)[O-])c4)c(Oc4cnc5[nH]ccc5c4)c3)CC2)=C(c2ccc(Cl)cc2)C1 [Venetoclax] | 34.5 | 102.9 | 98.6 | 95.7 | 88.8 | 112.5 | 102.7 | 26.4 | 100.5 | 96.8 | 98.0 | 22.4 | 99.7 | 94.1 | 92.7 | – | – | –
CNC(=O)c1cc(Oc2ccc(NC(=O)Nc3ccc(Cl)c(C(F)(F)F)c3)cc2)ccn1 [Sorafenib] | 38.6 | 97.0 | 85.6 | 81.9 | 96.0 | 83.4 | 72.1 | 38.4 | 98.2 | 89.2 | 91.9 | 34.6 | 92.5 | 91.0 | 89.2 | 28.2 | – | –
N#CC[C@H](C1CCCC1)n1cc(-c2ncnc3[nH]ccc23)cn1 [Ruxolitinib] | 63.9 | 97.6 | 101.6 | 102.0 | 102.2 | 100.4 | 105.0 | 60.9 | 100.3 | 100.6 | 102.2 | 53.0 | 95.9 | 102.3 | 101.3 | 63.3 | – | –
COc1cc2c(Nc3ccc(Br)cc3F)ncnc2cc1OCC1CCN(C)CC1 [Vandetanib] | 44.7 | 99.4 | 97.2 | 94.8 | 91.7 | 81.4 | 80.3 | 49.3 | 101.6 | 95.8 | 95.1 | 41.3 | 88.8 | 83.1 | 83.3 | 24.9 | – | –
CNC(=O)c1ccccc1Sc1ccc2c(/C=C/c3ccccn3)n[nH]c2c1 [Axitinib] | 67.7 | 103.6 | 107.5 | 86.7 | 129.6 | 108.7 | 106.1 | 54.6 | 100.6 | 116.9 | 99.3 | 46.2 | 97.2 | 123.3 | 101.6 | 71.1 | no losses of concentrations below the acceptance limit | –
Cc1nc(Nc2ncc(C(=O)Nc3c(C)cccc3Cl)s2)cc(N2CCN(CCO)CC2)n1 [Dasatinib] | 47.7 | 102.2 | 90.1 | 98.3 | 124.4 | 90.7 | 115.9 | 46.4 | 100.1 | 91.7 | 90.0 | 38.9 | 96.7 | 99.4 | 93.1 | 65.9 | – | –
CO[C@@H]1[C@H](N(C)C(=O)c2ccccc2)C[C@H]2O[C@]1(C)n1c3ccccc3c3c4c(c5c6ccccc6n2c5c31)C(=O)NC4 [Midostaurin] | 45.3 | 93.5 | 91.7 | 88.1 | 90.3 | 89.5 | 85.7 | 41.7 | 103.7 | 88.3 | 91.0 | 37.7 | 98.8 | 89.5 | 88.4 | 39.0 | – | –
O=C(Nc1cnn2ccc(N3CCC[C@@H]3c3cc(F)ccc3F)nc12)N1CC[C@H](O)C1 [Larotrectinib] | 58.9 | 104.3 | 109.3 | 102.4 | 107.8 | 115.6 | 100.1 | 58.2 | 99.9 | 106.3 | 110.8 | 50.9 | 98.3 | 105.3 | 104.5 | 44.4 | – | –
O=c1[nH]c(=O)n([C@H]2C[C@H](O)[C@@H](CO)O2)cc1C(F)(F)F [Trifluridine] | -6.6 | 103.5 | 72.7 | 76.2 | 83.6 | 45.6 | 36.1 | 28.1 | 96.3 | 78.0 | 75.3 | 23.2 | 85.5 | 66.9 | 67.3 | -89.2 | – | –
CN(C)C/C=C/C(=O)Nc1cc2c(Nc3ccc(F)c(Cl)c3)ncnc2cc1O[C@H]1CCOC1 [Afatinib] | 30.4 | 85.5 | 80.8 | 92.5 | 85.9 | 64.3 | 69.9 | 36.2 | 97.9 | 89.4 | 91.4 | 33.2 | 92.8 | 77.8 | 82.7 | 7.2 | – | 64.3–92.5%
CCN1CCN(Cc2ccc(Nc3ncc(F)c(-c4cc(F)c5nc(C)n(C(C)C)c5c4)n3)nc2)CC1 [Abemaciclib] | 27.9 | 102.9 | 88.7 | 87.4 | 93.7 | 90.1 | 88.2 | 34.3 | 104.5 | 90.3 | 91.7 | 34.9 | 94.4 | 88.4 | 87.5 | 27.4 | – | –
CNCc1ccc(-c2[nH]c3cc(F)cc4c3c2CCNC4=O)cc1 [Rucaparib] | 56.7 | 94.0 | 94.3 | 95.8 | 106.8 | 100.0 | 99.7 | 52.2 | 102.0 | 100.5 | 102.1 | 46.1 | 96.9 | 98.9 | 99.1 | 60.9 | – | –
